pIC50: −log10 of the molar value.
Experiments:
[1] = target: p38 MAPKα isoform (MAPK14) (Homo sapiens (Human), UniProt Q16539); test: p38 MAPKα enzyme inhibition (FRET, Z-LYTE, Method 2); format: biochemical
Outline: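 Z-LYTE FRET: p38 MAPKα (80 ng/mL for Method 1, 200 ng/mL for Method 2, pre-dilution) preincubated 2 hr RT with compound (4–0.004 μg/mL solutions), activity read via MAPKAP-K2 phosphorylation after 1 hr RT and 1 hr protease development. Coumarin/fluorescein ratio gives phosphorylation; % inhibition versus uninhibited control, IC50 from concentration-response curve.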

[2] = target: c-Src (Homo sapiens (Human), UniProt P12931); test: c-Src enzyme inhibition (FRET, Z-LYTE); format: biochemical
Outline: (§1)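 Z-LYTE FRET read-out uses protease cleavage of unphosphorylated peptide, and the donor/acceptor ratio reflects phosphorylation. Kinase stocks (c-Src 3000, Syk 2000 ng/mL) were preincubated 2 hr RT with compound stocks of 0.004–4 μg/mL. Peptide and ATP solutions (c-Src 800 μM, Syk 60 μM) were then added for 1 hr. IC50 was taken from concentration-response.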

[3] = target: Syk (Homo sapiens (Human), UniProt P43405); test: Syk enzyme inhibition (FRET, Z-LYTE); format: biochemical
Outline: as §1

[4] = target: GSK 3α (Homo sapiens (Human), UniProt P49840); test: GSK 3α enzyme inhibition (FRET, Z-LYTE, Method 2); format: biochemical; conditions: read-out: IC50 Values for Enzyme Inhibition, GSK3α
Outline: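 Recombinant human GSK3α was preincubated with compound (stocks 4, 0.4, 0.04 or 0.004 μg/mL) at RT, 2 hr for Method 1 and 105 min for Method 2. FRET peptide (8 μM stock) and ATP (40 μM stock) were added for 1 hr, then protease development for 1 hr. IC50 was taken from concentration–response curves.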

[5] = system: PBMCs; test: LPS-induced IL-8 release in PBMC cells (assay b); format: cell-based, human; conditions: Homo sapiens, PBMC; LPS-stimulated PBMCs; read-out: IC50 Values for Inhibition of Cytokine Release, PBMCs IL-8
Outline: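 Cytokines (TNFα, IL-8) in supernatants were quantified by sandwich ELISA after a 24 h challenge with 1 ng/mL E. coli LPS at 37° C, 5% CO2. Healthy-donor PBMCs had been exposed to compound for 2 h beforehand. IC50 values were fitted from the concentration-response curves.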

[6] = system: PBMCs; test: IL-2 release in CD3/CD28 stimulated PBMC cells (assay c); format: cell-based; conditions: Homo sapiens, read-out: IC50 Values for Inhibition of Cytokine Release, PBMCs IL-2
Experimental: (§2) PBMCs from healthy subjects are separated from whole blood using a density gradient (Lymphoprep, Axis-Shield Healthcare). Cells are added to a 96 well plate pre-coated with a mixture of CD3/CD28 monoclonal antibodies (0.3 μg/mL eBioscience and 3 μg/mL BD Pharmingen respectively). Compound at the desired concentration is then added to the wells and the plate left for 3 days under normal tissue culture conditions. Supernatants are harvested and IL-2 and IFN gamma release determined by Sandwich ELISA (Duo-set, R&D System). The IC50 is determined from the dose response curve.

[7] = system: PBMCs; test: IFN gamma release in CD3/CD28 stimulated PBMC cells (assay c); format: cell-based; conditions: Homo sapiens, read-out: IC50 Values for Inhibition of Cytokine Release, PBMCs IFNγ
Experimental: as §2

[8] = system: PBMCs; test: Cell mitosis assay in PBMCs (assay g); format: cell-based; conditions: Homo sapiens, PBMC, test compound 5 μg/mL
Outline: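 Metaphase arrest with 0.1 μg/mL demecolcine during the final 2 hr of a 20 hr compound exposure, which follows 48 hr of 2% PHA stimulation of healthy-donor human PBMCs. Mitotic lymphocytes counted by flow cytometry (anti-phospho-histone 3 plus propidium iodide). Inhibition expressed relative to 0.5% DMSO.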

GSK 3α, sequence (P49840 whole entry): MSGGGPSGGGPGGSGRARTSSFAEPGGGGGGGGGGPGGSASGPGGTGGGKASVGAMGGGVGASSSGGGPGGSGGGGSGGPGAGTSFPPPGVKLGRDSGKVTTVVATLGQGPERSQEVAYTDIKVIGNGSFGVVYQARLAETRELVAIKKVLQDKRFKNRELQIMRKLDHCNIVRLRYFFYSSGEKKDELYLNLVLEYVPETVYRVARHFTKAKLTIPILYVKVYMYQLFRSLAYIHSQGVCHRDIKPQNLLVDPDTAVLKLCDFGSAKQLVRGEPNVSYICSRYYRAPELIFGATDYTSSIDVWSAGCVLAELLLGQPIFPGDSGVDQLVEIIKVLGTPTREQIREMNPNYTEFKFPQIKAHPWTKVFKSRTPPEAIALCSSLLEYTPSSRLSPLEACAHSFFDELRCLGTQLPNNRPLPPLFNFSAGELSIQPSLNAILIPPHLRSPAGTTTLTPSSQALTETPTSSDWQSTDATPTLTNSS
c-Src, sequence (P12931 whole entry, looked up): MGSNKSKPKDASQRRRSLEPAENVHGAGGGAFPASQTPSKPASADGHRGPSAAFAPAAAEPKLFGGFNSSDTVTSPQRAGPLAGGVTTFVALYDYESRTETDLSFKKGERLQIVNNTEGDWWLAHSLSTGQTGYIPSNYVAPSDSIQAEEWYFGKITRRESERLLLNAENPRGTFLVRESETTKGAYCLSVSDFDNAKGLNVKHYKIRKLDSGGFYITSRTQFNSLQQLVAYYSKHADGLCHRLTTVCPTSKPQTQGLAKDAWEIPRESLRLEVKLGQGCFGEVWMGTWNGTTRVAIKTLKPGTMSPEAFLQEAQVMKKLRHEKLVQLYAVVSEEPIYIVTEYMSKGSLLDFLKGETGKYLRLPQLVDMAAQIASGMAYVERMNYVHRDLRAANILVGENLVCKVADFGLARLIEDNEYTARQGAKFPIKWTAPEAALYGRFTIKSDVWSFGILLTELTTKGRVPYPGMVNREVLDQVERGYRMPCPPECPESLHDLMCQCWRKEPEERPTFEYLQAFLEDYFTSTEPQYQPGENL
p38 MAPKα isoform (MAPK14), sequence (Q16539 whole entry, canonical isoform): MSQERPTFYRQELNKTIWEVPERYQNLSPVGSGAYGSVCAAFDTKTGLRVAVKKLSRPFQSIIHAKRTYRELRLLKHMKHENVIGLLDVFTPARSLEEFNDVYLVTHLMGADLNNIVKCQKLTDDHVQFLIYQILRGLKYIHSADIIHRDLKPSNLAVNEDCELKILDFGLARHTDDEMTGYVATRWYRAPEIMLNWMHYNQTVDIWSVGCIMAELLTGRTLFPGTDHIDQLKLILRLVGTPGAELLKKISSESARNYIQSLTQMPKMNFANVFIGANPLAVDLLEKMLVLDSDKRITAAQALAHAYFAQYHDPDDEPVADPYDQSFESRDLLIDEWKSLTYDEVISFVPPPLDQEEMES

Row | Compound | pIC50 [1] | pIC50 [2] | pIC50 [3] | pIC50 [4] | pIC50 [5] | pIC50 [6] | pIC50 [7] | inhibition at 5 µg/mL [8] [%]
1 | COc1cc(Nc2cc(Oc3ccc(NC(=O)Nc4cc(C(C)(C)C)cc(S(C)(=O)=O)c4OC)c4ccccc34)ccn2)cc(C(=O)NCCN2CC[S+]([O-])CC2)c1 [38(an), 3-((4-((4-(3-(5-(tert-Butyl)-2-methoxy-3-(methylsulfonyl)phenyl)ureido)naphthalen-1-yl)oxy)pyridin-2-yl)amino)-5-methoxy-N-(2-(1-oxidothiomorpholino)ethyl)benzamide] | 7.32 | 7.62 | 7.00 | 5.44 | 8.42 | 7.09 | 8.09 | 30.1
2 | COCCOCCOCCNC(=O)c1cc(Nc2cc(Oc3ccc(NC(=O)Nc4cc(C(C)(C)C)cc(CNC(C)=O)c4OC)c4ccccc34)ccn2)cc(OC)c1 [38(y), 3-((4-((4-(3-(3-(Acetamidomethyl)-5-(tert-butyl)-2-methoxyphenyl)ureido)naphthalen-1-yl)oxy)pyridin-2-yl)amino)-5-methoxy-N-(2-(2-(2-methoxyethoxy)ethoxy)ethyl)benzamide] | 7.68 | 7.82 | 6.41 | 6.06 | 9.30 | 7.55 | 8.10 | 65.7
3 | COc1cc(Nc2cc(Oc3ccc(NC(=O)Nc4cc(C(C)(C)C)cc(P(C)(C)=O)c4OC)c4ccccc34)ccn2)cc(S(=O)(=O)N(C)CCCN2CCOCC2)c1 [79(d), 1-(5-tert-Butyl-3-dimethylphosphoryl-2-methoxy-phenyl)-3-[4-[[2-[3-methoxy-5-[methyl(3-morpholinopropyl)sulfamoyl]anilino]-4-pyridyl]oxy]-1-naphthyl]urea] | 7.41 | 6.66 | < 5.93 | 5.40 | 8.41 | 6.20 | 7.84 | 19.9
4 | COCCOCCOCCNC(=O)c1cc(Nc2cc(Oc3ccc(NC(=O)Nc4cc(C(C)(C)C)cc([S+](C)[O-])c4OC)c4ccccc34)ccn2)cc(OC)c1 (centres unmarked) [Example 48, 3-((4-((4-(3-(5-(tert-Butyl)-2-methoxy-3-(methylsulfinyl)phenyl)ureido)naphthalen-1-yl)oxy)pyridin-2-yl)amino)-5-methoxy-N-(2-(2-(2-methoxyethoxy)ethoxy)ethyl)benzamide] | 7.60 | 7.43 | < 5.91 | 5.57 | 9.40 | 6.94 | 8.43 | 35.6
5 | COc1c(NC(=O)Nc2ccc(Oc3ccnc(Nc4cc(C#N)cc(OCCN5CCOCC5)c4)c3)c3ccccc23)cc(C(C)(C)C)cc1[S+](C)[O-] (centres unmarked) [Example 51, 1-(5-(tert-Butyl)-2-methoxy-3-(methylsulfinyl)phenyl)-3-(4-((2-((3-cyano-5-(2-morpholinoethoxy)phenyl)amino)pyridin-4-yl)oxy)naphthalen-1-yl)urea] | 6.80 | 7.26 | < 5.87 | 5.06 | 8.89 | 7.00 | 7.12 | 28
6 | COc1c(CNC(C)=O)cc(C(C)(C)C)cc1NC(=O)Nc1ccc(Oc2ccnc(Nc3cc(OCCN4CCOCC4)cc(C(F)(F)F)c3)c2)c2ccccc12 [Example 52] | < 5.90 | 6.63 | < 5.90 | < 4.90 | 8.55 | 7.36 | 8.26 | 46.8
7 | COCCOCCOCCNC(=O)c1cc(Nc2cc(Oc3ccc(NC(=O)Nc4cc(C(C)(C)C)cc(CC(N)=O)c4OC)c4ccccc34)ccn2)cc(OC)c1 [Example 53, 3-((4-((4-(3-(3-(2-Amino-2-oxoethyl)-5-(tert-butyl)-2-methoxyphenyl)ureido)naphthalen-1-yl)oxy)pyridin-2-yl)amino)-5-methoxy-N-(2-(2-(2-methoxyethoxy)ethoxy)ethyl)benzamide] | 7.92 | 7.66 | < 5.91 | 5.81 | 8.96 | 7.28 | 8.22 | 22.3
8 | COc1cc(Nc2cc(Oc3ccc(NC(=O)Nc4cc(C(C)(C)C)cc(S(C)(=O)=O)c4OC)c4ccccc34)ccn2)cc(C(=O)NCCN2CCOCC2)c1 [Example 54, 3-((4-((4-(3-(5-(tert-Butyl)-2-methoxy-3-(methylsulfonyl)phenyl)ureido)naphthalen-1-yl)oxy)pyridin-2-yl)amino)-5-methoxy-N-(2-morpholinoethyl)benzamide] | 7.20 | 7.37 | 6.23 | < 5.30 | 8.82 | 7.42 | 8.43 | 51.9
9 | COc1cc(Nc2cc(Oc3ccc(NC(=O)Nc4cc(C(C)(C)C)cc([S+](C)[O-])c4OC)c4ccccc34)ccn2)cc(C(N)=O)c1 (centres unmarked) [Example 55, 3-((4-((4-(3-(5-(tert-Butyl)-2-methoxy-3-(methylsulfinyl)phenyl)ureido)naphthalen-1-yl)oxy)pyridin-2-yl)amino)-5-methoxybenzamide] | 7.42 | 7.43 | < 6.16 | 5.61 | 9.22 | 7.51 | 8.21 | 51.7

More lines, main results first:

Row | pIC50 [1] | pIC50 [2] | pIC50 [3] | pIC50 [4] | Compound | pIC50 [5] | pIC50 [6] | pIC50 [7] | inhibition at 5 µg/mL [8] [%]
10 | 7.06 | 6.81 | < 5.86 | 4.96 | COc1cc(Nc2cc(Oc3ccc(NC(=O)Nc4cc(C(C)(C)C)cc(CC(N)=O)c4OC)c4ccccc34)ccn2)cc(S(=O)(=O)C2CC2)c1 [38(ad), 2-(5-(tert-Butyl)-3-(3-(4-((2-((3-(cyclopropylsulfonyl)-5-methoxyphenyl)amino)pyridin-4-yl)oxy)naphthalen-1-yl)ureido)-2-methoxyphenyl)acetamide] | 8.66 | 6.67 | 7.96 | 14.5
11 | 6.21 | 6.51 | < 5.81 | 4.86 | COc1cc(C#N)cc(Nc2cc(Oc3ccc(NC(=O)Nc4cc(C(C)(C)C)cc(CC(N)=O)c4OC)c4ccccc34)ccn2)c1 [38(ah), 2-(5-(tert-Butyl)-3-(3-(4-((2-((3-cyano-5-methoxyphenyl)amino)pyridin-4-yl)oxy)naphthalen-1-yl)ureido)-2-methoxyphenyl)acetamide] | 8.64 | 6.46 | 7.97 | 6.7
12 | 6.53 | 6.66 | < 5.86 | < 4.88 | COc1cc(Nc2cc(Oc3ccc(NC(=O)Nc4cc(C(C)(C)C)cc(CC(N)=O)c4OC)c4ccccc34)ccn2)cc(S(=O)(=O)N(C)C)c1 [38(aj), 2-(5-(tert-Butyl)-3-(3-(4-((2-((3-(N,N-dimethylsulfamoyl)-5-methoxyphenyl)amino)pyridin-4-yl)oxy)naphthalen-1-yl)ureido)-2-methoxyphenyl)acetamide] | 8.68 | 6.47 | 8.02 | -1
13 | 6.91 | 7.41 | < 5.87 | 5.35 | COc1c(CC(N)=O)cc(C(C)(C)C)cc1NC(=O)Nc1ccc(Oc2ccnc(Nc3cc(C#N)cc(OCCN4CCOCC4)c3)c2)c2ccccc12 [Example 49, 2-(5-(tert-Butyl)-3-(3-(4-((2-((3-cyano-5-(2-morpholinoethoxy)phenyl)amino)pyridin-4-yl)oxy)naphthalen-1-yl)ureido)-2-methoxyphenyl)acetamide] | 9.10 | 7.04 | 8.24 | 43.9

Source: patent publication US9890185B2, “Urea derivatives useful as kinase inhibitors” (Respivert Limited, priority 2013, dated 2018)
